Data set [1] has as its target T1, P-gp Q773R mutant (Homo sapiens, UniProt P08183, Q773R). As to the kind of experiment: Rhodamine123 efflux. Conditions: slope of first-order rate constant vs P-gp surface expression (MRK16). The class given is cell-based.
Data set [2] deals with T2, P-gp Q773A mutant (Homo sapiens, UniProt P08183, Q773A). Description: Rhodamine123 efflux. The class given is cell-based. Conditions: Q773A vs wild type.
Data set [3] concerns the target T3, P-gp Q132R mutant (Homo sapiens, UniProt P08183, Q132R). Description: Rhodamine123 efflux. Conditions: slope of first-order rate constant vs P-gp surface expression (MRK16). The class given is cell-based.
Data set [4] addresses P-gp Q132R/Q773R double mutant (Homo sapiens, UniProt P08183, Q132R/Q773R). Description: Rhodamine123 efflux. The class given is cell-based. Conditions: protein expressed at the cell surface.
Data set [5] deals with T4, P-gp Q132A mutant (Homo sapiens, UniProt P08183, Q132A). As to the kind of experiment: Rhodamine123 efflux. Conditions: Q132A vs wild type. Format: cell-based.
For data set [6], the target named is T1, P-gp Q773R mutant. Description: cell-based. Conditions: IC50 for rhodamine123 efflux inhibition, HEK-293/EBNA cells.
Data set [7] has as its target P-gp Q132A/Q773A mutant (Homo sapiens, UniProt P08183, Q132A/Q773A). Description: cell-based.
Data set [8] has as its target wild-type P-gp (Homo sapiens, UniProt P08183). Description: cell-based.
Data set [9] addresses T4, P-gp Q132A mutant. Conditions: alanine mutants (Q132A, Q773A) vs wild type, rhodamine123 efflux inhibition.
The target of data set [10] is T2, P-gp Q773A mutant. As to the kind of experiment: cell-based.
Data set [11] has as its target T3, P-gp Q132R mutant. As to the kind of experiment: cell-based.
Data set [12] addresses T4, P-gp Q132A mutant. As to the kind of experiment: cell-based.
Data set [13] addresses T3, P-gp Q132R mutant. Conditions: rhodamine123 efflux inhibition.

Entries after “also recorded” stand apart in the source; their conditions may differ.

T3 sequence (P08183 whole entry Q132R): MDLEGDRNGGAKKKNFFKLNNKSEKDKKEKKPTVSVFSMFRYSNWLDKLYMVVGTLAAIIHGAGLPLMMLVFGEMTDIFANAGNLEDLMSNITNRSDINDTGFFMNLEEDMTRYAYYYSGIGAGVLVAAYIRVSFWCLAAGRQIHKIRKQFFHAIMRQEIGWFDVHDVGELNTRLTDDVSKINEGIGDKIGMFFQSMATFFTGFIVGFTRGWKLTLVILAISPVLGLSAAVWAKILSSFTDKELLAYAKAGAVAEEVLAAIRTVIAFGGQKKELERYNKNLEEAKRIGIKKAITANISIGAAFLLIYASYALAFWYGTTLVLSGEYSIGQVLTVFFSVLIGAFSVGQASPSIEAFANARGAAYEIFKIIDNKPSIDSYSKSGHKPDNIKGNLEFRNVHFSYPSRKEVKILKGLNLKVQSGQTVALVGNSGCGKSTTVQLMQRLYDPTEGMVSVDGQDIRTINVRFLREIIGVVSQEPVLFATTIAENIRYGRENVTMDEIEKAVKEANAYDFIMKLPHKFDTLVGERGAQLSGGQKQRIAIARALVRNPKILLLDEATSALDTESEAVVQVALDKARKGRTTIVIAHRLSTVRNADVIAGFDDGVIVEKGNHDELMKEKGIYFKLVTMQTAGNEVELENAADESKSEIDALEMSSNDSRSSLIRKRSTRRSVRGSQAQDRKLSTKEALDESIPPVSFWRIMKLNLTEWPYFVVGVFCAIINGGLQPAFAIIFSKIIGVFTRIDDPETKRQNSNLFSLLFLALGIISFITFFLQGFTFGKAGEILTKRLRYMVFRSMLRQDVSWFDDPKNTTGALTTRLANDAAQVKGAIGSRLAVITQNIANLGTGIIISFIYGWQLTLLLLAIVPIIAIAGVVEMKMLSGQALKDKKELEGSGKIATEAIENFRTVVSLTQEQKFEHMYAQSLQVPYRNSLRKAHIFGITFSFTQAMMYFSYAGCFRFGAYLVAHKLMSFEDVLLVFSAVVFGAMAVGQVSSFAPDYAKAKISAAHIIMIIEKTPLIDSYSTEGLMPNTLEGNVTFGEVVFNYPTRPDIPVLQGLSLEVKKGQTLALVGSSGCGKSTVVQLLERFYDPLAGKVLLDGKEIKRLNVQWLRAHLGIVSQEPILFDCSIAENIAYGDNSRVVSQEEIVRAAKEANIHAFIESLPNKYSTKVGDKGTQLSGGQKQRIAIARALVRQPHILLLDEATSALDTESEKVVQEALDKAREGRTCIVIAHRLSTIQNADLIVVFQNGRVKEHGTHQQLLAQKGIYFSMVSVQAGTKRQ
T4 sequence (P08183 whole entry Q132A): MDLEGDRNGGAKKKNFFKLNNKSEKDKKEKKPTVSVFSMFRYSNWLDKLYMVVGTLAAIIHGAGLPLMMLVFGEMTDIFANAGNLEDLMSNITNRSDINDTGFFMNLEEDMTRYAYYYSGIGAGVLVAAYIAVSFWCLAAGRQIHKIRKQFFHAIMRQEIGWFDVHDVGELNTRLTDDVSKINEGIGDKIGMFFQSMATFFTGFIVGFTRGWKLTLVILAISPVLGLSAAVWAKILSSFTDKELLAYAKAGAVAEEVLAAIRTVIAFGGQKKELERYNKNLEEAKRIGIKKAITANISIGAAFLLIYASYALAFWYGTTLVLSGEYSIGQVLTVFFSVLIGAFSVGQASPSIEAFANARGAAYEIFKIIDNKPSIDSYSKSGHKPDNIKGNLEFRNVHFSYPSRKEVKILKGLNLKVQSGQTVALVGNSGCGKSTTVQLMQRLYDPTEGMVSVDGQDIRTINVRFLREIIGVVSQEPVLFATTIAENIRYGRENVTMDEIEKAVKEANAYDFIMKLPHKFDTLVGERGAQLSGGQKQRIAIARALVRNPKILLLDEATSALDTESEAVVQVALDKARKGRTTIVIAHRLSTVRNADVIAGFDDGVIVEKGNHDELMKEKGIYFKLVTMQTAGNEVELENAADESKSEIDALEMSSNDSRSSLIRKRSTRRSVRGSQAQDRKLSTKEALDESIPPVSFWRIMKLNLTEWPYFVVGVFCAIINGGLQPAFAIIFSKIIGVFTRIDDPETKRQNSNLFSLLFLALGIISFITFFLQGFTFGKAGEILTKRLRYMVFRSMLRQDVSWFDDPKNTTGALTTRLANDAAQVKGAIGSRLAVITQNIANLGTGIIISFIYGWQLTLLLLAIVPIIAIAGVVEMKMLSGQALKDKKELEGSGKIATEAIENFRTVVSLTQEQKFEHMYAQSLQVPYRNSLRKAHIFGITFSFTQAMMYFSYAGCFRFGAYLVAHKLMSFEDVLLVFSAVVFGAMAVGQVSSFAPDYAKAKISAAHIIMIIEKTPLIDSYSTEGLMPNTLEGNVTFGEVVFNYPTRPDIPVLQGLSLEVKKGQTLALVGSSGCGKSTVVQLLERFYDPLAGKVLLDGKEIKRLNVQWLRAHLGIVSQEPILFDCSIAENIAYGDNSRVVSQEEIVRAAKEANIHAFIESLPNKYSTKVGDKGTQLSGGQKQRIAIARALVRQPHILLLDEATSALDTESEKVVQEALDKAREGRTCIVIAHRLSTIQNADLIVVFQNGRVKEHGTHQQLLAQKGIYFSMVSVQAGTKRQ
T1 sequence (P08183 whole entry Q773R): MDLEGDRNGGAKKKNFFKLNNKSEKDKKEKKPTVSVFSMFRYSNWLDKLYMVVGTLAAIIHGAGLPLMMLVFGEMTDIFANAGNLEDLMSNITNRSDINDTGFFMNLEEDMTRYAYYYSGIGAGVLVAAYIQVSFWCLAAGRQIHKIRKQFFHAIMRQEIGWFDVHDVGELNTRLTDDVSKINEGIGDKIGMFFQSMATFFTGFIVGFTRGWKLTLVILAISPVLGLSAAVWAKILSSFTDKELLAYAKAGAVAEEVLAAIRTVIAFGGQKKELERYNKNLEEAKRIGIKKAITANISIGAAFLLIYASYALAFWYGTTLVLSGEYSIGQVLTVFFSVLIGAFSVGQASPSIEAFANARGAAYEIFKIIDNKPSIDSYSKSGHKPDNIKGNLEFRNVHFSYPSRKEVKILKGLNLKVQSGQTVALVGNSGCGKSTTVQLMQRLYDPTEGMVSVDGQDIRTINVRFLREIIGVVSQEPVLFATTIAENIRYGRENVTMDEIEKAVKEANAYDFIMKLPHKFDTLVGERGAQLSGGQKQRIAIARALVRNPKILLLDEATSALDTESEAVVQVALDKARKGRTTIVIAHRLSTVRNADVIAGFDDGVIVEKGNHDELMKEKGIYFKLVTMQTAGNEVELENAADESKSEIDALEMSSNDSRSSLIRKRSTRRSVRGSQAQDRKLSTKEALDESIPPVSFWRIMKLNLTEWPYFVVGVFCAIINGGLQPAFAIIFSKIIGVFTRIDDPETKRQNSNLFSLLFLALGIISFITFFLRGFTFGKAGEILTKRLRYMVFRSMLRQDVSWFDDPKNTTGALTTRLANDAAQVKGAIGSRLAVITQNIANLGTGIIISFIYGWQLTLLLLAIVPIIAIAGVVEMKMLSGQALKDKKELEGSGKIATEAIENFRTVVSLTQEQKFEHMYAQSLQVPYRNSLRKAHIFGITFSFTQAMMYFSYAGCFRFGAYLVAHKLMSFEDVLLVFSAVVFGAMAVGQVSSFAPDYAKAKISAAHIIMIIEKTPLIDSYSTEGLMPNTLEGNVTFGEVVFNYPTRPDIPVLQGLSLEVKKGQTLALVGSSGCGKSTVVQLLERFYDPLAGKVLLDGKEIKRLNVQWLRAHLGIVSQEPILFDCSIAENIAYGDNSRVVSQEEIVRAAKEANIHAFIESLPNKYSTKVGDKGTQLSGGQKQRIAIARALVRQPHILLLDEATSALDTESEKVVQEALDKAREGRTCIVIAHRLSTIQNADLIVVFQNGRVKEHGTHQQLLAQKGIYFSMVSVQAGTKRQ
T2 sequence (P08183 whole entry Q773A): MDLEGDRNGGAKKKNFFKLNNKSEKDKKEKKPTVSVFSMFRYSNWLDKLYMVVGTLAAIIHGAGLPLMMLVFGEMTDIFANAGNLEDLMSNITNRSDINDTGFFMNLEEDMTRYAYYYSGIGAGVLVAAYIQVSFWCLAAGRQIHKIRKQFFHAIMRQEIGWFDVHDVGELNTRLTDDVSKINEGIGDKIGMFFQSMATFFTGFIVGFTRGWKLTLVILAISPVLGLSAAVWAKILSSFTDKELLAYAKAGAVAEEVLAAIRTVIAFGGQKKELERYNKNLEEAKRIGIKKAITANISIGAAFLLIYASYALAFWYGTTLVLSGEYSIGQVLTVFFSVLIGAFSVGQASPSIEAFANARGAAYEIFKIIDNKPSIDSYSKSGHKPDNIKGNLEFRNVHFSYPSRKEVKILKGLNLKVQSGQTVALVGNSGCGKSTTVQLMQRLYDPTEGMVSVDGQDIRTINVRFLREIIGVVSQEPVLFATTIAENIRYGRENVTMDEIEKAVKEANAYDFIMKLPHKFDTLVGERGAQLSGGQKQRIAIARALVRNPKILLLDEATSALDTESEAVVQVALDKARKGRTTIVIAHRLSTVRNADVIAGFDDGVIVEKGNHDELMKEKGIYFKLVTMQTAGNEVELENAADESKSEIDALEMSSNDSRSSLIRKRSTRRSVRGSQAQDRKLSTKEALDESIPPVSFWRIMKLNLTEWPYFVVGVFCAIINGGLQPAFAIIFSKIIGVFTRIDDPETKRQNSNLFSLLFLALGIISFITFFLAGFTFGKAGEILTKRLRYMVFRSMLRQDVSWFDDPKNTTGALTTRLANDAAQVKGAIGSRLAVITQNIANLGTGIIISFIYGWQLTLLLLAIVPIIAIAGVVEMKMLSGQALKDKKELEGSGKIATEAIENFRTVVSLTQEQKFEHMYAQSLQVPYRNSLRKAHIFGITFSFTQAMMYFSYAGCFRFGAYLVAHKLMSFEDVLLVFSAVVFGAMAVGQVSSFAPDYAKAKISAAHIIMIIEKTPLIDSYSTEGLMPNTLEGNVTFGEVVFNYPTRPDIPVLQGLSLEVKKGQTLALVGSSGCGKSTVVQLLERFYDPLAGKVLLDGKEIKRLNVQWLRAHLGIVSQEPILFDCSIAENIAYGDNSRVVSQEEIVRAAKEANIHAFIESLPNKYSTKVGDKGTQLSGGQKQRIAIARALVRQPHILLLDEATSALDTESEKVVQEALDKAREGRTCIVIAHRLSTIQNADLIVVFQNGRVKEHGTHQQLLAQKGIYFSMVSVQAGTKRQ

As for `COC(=O)c1ccccc1-c1c2ccc(=N)cc-2oc2cc(N)ccc12` [rhodamine123], the “Rhodamine123 transport rate relative to wild-type” value in [1] is reported as 24 ± 6 % of wild-type; in data set [3] it was 52 ± 13 % of wild-type. Moreover, the “Effect of mutation on rhodamine123 transport” value in data set [2] and in data set [5] was “did not affect; also recorded: comparable with wild-type” in each case. In data set [4], the Rhodamine123 transport activity entry was “complete loss of transport activity”.
On to `CCCN(CC(O)COc1ccccc1C(=O)CCc1ccccc1)C(=O)c1ccccc1` (stereo not drawn) [GPV366, N-(2-hydroxy-3-(2-(3-phenylpropanoyl)phenoxy)-propyl)-N-propylbenzamide], for which the IC50 in data set [6] worked out at 2090 ± 900 nM; in data set [7] it was 2870 ± 630 nM; in data set [8], 2600 ± 690 nM; in data set [10], 2400 ± 1470 nM; in data set [11], 2640 ± 590 nM; in data set [12], 2570 ± 690 nM. Moreover, the “Change of IC50 values on mutation of glutamine residues to alanine” value in data set [9] was “did not change”.
Turning to `O=C(CCc1ccccc1)c1ccccc1OCC(O)CN1CCN(c2ccc(F)cc2)CC1` (stereo not drawn) [GPV31, 1-(2-(3-(4-(4-fluorophenyl)piperazin-1-yl)-2-hydroxypropoxy)phenyl)-3-phenylpropan-1-one], the IC50 in data set [6] was found to be 20 ± 10 nM; in data set [7], 120 ± 10 nM; in data set [8], 110 ± 60 nM; in [10], 110 ± 50 nM; in data set [11] it was 710 ± 460 nM; in data set [12], 100 ± 30 nM. Moreover, in data set [9], the “Change of IC50 values on mutation of glutamine residues to alanine” value is “did not change”. Besides, the “Fold difference in IC50 values between the two Arg mutants” value in data set [13] (Q132R vs Q773R) is reported as 36 fold. In addition, the “Fold higher IC50 in Q132R than in wild-type P-gp” value in [13] (Q132R vs wild-type) is given as ~7 fold.

(Values after paper PMC6422312 (Molecular pharmacology, 2010).)
